Measurements: US11147272B2, “Pyridone compounds and agricultural and horticultural fungicides comprising the same as active ingredients” (MITSUI CHEMICALS AGRO, INC., priority 2017, dated 2021)

Assays:
[1] = test system: Phytophthora infestans; assay: whole plant or invertebrate; assay type: in vivo; details: 250 ppm drug solution sprayed on test plant
[2] = test system: Alternaia brassicicola; assay: Test Example C: Alternaria sooty spot on cabbage; assay type: in vivo; details: 250 ppm drug solution sprayed on test plant
Source text: Seeds of a test plant (cabbage variety: Shikidori) were planted and cultivated until the cotyledons extended.
<Control Value> Control value=100{1−(n/3)}

[3] = test system: Puccinia recondita; assay: Test Example E: Brown rust on wheat; assay type: in vivo; details: 250 ppm drug solution sprayed on test plant
[4] = test system: Blumeria graminis f. sp. hordei; assay: Test Example D: Powdery mildew on barley; details: 250 ppm drug solution sprayed on test plant
Method: Seeds of a test plant (barley variety: Akashinriki) were planted and cultivated until the first leaves appeared. In the test, the inventive compounds were dissolved into dimethyl sulfoxide-methanol mixture solution (volume ratio: 9/1), and the resultant solutions were diluted with well water to a concentration of 250 ppm to obtain the drug solutions. The drug solutions were sprayed to the test plant (2.5 ml/pot). After the drug solutions dried, conidia of Blumeria graminis f. sp. hordei were inoculated to the plant by shaking off. The degrees of disease development were investigated 6 to 10 days after the inoculation, and the effectiveness of the drug solutions was evaluated.
In Test Examples described above, the degrees of disease development were evaluated in increments of 0.05 from 0 (as no incidence of disease) to 3 (as the degree of disease development in an untreated plant group). Further, control values were calculated using the following equation based on the degree of disease development.
n=Degree of disease development in each treated group

[5] = test system: Plasmopara viticola; assay: Test Example G: Downy mildew on vine; details: 250 ppm drug solution sprayed (2.5 ml/pot), grape Neomuscat, 7 to 10 days after inoculation
[6] = test system: Botrytis cinerea; assay: Test Example B: Gray mold on tomato; details: 250 ppm drug solution sprayed on test plant
[7] = test system: Colletotrichum orbiculare; assay: Test Example H: Anthracnose on cucumber; details: 250 ppm drug solution sprayed (2.5 ml/pot), cucumber Sagami Hanjiro, 6 to 10 days after inoculation
[8] = test system: Magnaporthe grisea; assay: whole plant or invertebrate; assay type: in vivo; details: 250 ppm drug solution sprayed on test plant

Row | SMILES | Test F control value [1] | Test C control value [2] | Test E control value [3] | Test D control value [4] | Test G control value [5] | Test B control value [6] | Test H control value [7] | Test A control value [8]
1 | CCCc1cc(Br)c(=O)n(CCC)c1-c1c(F)cc(OC)cc1F [compound 444] | L (50% or less control value) | H (more than 50% control value) | H (more than 50% control value) | L (50% or less control value) | H (more than 50% control value) | H (more than 50% control value) | H (more than 50% control value) | L (50% or less control value)
2 | CCCc1cc(I)c(=O)n(CCC)c1-c1c(F)cc(OC)cc1F [compound 445] | L (50% or less control value) | H (more than 50% control value) | H (more than 50% control value) | L (50% or less control value) | L (50% or less control value) | H (more than 50% control value) | H (more than 50% control value) | L (50% or less control value)
3 | CC(C)C(O)c1cc(Cl)c(=O)n(C)c1-c1c(F)cc(F)cc1F (stereo not shown) [compound 447] | L (50% or less control value) | H (more than 50% control value) | H (more than 50% control value) | H (more than 50% control value) | H (more than 50% control value) | H (more than 50% control value) | H (more than 50% control value) | H (more than 50% control value)
4 | CC(C)C(=O)c1cc(Cl)c(=O)n(C)c1-c1c(F)cc(F)cc1F [compound 448] | L (50% or less control value) | L (50% or less control value) | L (50% or less control value) | L (50% or less control value) | L (50% or less control value) | H (more than 50% control value) | L (50% or less control value) | L (50% or less control value)
5 | CCn1c(-c2c(F)cc(F)cc2F)c(C=O)ccc1=O [compound 449] | L (50% or less control value) | L (50% or less control value) | L (50% or less control value) | L (50% or less control value) | L (50% or less control value) | H (more than 50% control value) | L (50% or less control value) | L (50% or less control value)
6 | CC(C)C(C)(O)c1cc(Cl)c(=O)n(C)c1-c1c(F)cc(F)cc1F (stereo not shown) [compound 450] | H (more than 50% control value) | H (more than 50% control value) | H (more than 50% control value) | H (more than 50% control value) | H (more than 50% control value) | H (more than 50% control value) | H (more than 50% control value) | H (more than 50% control value)
7 | CCOC(C)(c1cc(Cl)c(=O)n(C)c1-c1c(F)cc(F)cc1F)C(C)C (stereo not shown) [compound 451] | L (50% or less control value) | L (50% or less control value) | L (50% or less control value) | H (more than 50% control value) | L (50% or less control value) | L (50% or less control value) | L (50% or less control value) | H (more than 50% control value)
8 | COC(C)(c1cc(Cl)c(=O)n(C)c1-c1c(F)cc(F)cc1F)C(C)C (stereo not shown) [compound 452] | L (50% or less control value) | H (more than 50% control value) | H (more than 50% control value) | H (more than 50% control value) | H (more than 50% control value) | H (more than 50% control value) | H (more than 50% control value) | H (more than 50% control value)
9 | CCn1c(-c2c(F)cc(F)cc2F)c(C(O)C(C)C)ccc1=O (stereo not shown) [compound 453] | L (50% or less control value) | H (more than 50% control value) | H (more than 50% control value) | H (more than 50% control value) | H (more than 50% control value) | H (more than 50% control value) | H (more than 50% control value) | L (50% or less control value)
10 | CCn1c(-c2c(F)cc(F)cc2F)c(C(=O)C(C)C)ccc1=O [compound 454] | L (50% or less control value) | H (more than 50% control value) | H (more than 50% control value) | H (more than 50% control value) | L (50% or less control value) | H (more than 50% control value) | H (more than 50% control value) | L (50% or less control value)
11 | CCn1c(-c2c(F)cc(F)cc2F)c(C(C)(O)C(C)C)ccc1=O (stereo not shown) [compound 455] | L (50% or less control value) | H (more than 50% control value) | H (more than 50% control value) | H (more than 50% control value) | H (more than 50% control value) | H (more than 50% control value) | H (more than 50% control value) | L (50% or less control value)
12 | CCCc1ccc(=O)n(CC)c1-c1c(F)cc(OCC)cc1F [compound 456] | L (50% or less control value) | H (more than 50% control value) | H (more than 50% control value) | H (more than 50% control value) | H (more than 50% control value) | H (more than 50% control value) | H (more than 50% control value) | H (more than 50% control value)
13 | CCCc1cc(Cl)c(=O)n(CC)c1-c1c(F)cc(OCC)cc1F [compound 457] | L (50% or less control value) | H (more than 50% control value) | H (more than 50% control value) | H (more than 50% control value) | L (50% or less control value) | H (more than 50% control value) | H (more than 50% control value) | H (more than 50% control value)
14 | CCCc1cc(Br)c(=O)n(CC)c1-c1c(F)cc(OCC)cc1F [compound 458] | L (50% or less control value) | H (more than 50% control value) | H (more than 50% control value) | H (more than 50% control value) | H (more than 50% control value) | H (more than 50% control value) | H (more than 50% control value) | H (more than 50% control value)
15 | C#CCOc1cc(F)c(-c2c(CCC)ccc(=O)n2CC)c(F)c1 [compound 459] | L (50% or less control value) | H (more than 50% control value) | H (more than 50% control value) | H (more than 50% control value) | H (more than 50% control value) | H (more than 50% control value) | H (more than 50% control value) | H (more than 50% control value)
16 | CC#CCOc1cc(F)c(-c2c(CCC)ccc(=O)n2CC)c(F)c1 [compound 460] | L (50% or less control value) | H (more than 50% control value) | H (more than 50% control value) | H (more than 50% control value) | H (more than 50% control value) | H (more than 50% control value) | H (more than 50% control value) | H (more than 50% control value)
17 | CC#CCOc1cc(F)c(-c2c(CCC)cc(Cl)c(=O)n2CC)c(F)c1 [compound 461] | L (50% or less control value) | H (more than 50% control value) | H (more than 50% control value) | H (more than 50% control value) | H (more than 50% control value) | H (more than 50% control value) | H (more than 50% control value) | H (more than 50% control value)
